Reference: publication PMC10108276, “Siderophore‐Linked Ruthenium Catalysts for Targeted Allyl Ester Prodrug Activation within Bacterial Cells” (Chemistry (Weinheim an Der Bergstrasse, Germany), 2022)
Converted amounts (≈) assume the structure as drawn. Like-named read-outs stand apart in the source and are kept apart here.

Columns and labels:
[1] = system: E. coli K12 (BW25113); test: catalyst-prodrug co-addition growth assay (24 h) with siderophore controls; conditions: without C‐moxi, MHII + 200 μM bpy, 2 % O2, 24 h
[2] = system: E. coli K12 (BW25113); test: effect of catalyst-siderophore conjugates on bacterial growth (dose-response, 24 h); conditions: at 10 μM, MHII + 200 μM bpy, 2 % O2, 24 h
[3] = system: E. coli K12 (BW25113); test: prodrug uptake assay (incubation, HPLC of extracellular and wash samples); type: cell-based, Escherichia coli
[4] = system: HeLa; test: MTT-based proliferation assay, HeLa; type: cell-based, human; conditions: 48 h
Excerpt: (§1) 7. Cytotoxicity against Mammalian Cells
(§2) 7.1. Cell viability assays for Moxi, C-Moxi and Ru-s4
(§3) Dulbecco’s Modified Eagle’s Medium (DMEM: [+] 4.5 g/L D-Glucose, L-Glutamine; [-]
(§4) Pyruvate), containing 10% fetal calf serum, 1% penicillin and streptomycin, was used
(§5) as growth medium for HeLa cells. DMEM ([+] 1 g/L D-Glucose; [+] Pyruvate),
(§6) containing 10% fetal calf serum, 1% penicillin and streptomycin, was respectively used
(§7) for GM5657 cells. HeLa and GM5657 cells were detached from the wells with trypsin
(§8) and EDTA, harvested by centrifugation and resuspended in the respective cell culture
(§9) medium. The assays were carried out on 96 well plates with a density of 6000 cells
(§10) per well. After 24 h of incubation at 37°C and 10% CO2, the cells were treated with
(§11) Moxi, C-Moxi and Ru-s4 (constant DMSO concentrations of 0.5%) with a final volume
(§12) of 200 µL per well. For a negative control, one series of cells were only treated with
(§13) 0.5% DMSO, and for a positive control, one series was treated with cisplatin. After 48
(§14) h of incubation, 50 µL PBS containing MTT (2.5 mg/mL) was added. The cells were
(§15) incubated for an additional 2 h. Afterwards, the medium was removed, and 200 µL of
(§16) DMSO were added. The formazan crystal absorption was measured at 550 nm, using
(§17) a reference wavelength of 650 nm. Each assay was carried out in triplicates (three
(§18) independent experiments) for each cell line, Table S3.

[5] = system: GM5657; test: MTT-based proliferation assay, GM5657; type: cell-based, human; conditions: 48 h
Excerpt: as §1, §2, §3, §4, §5, §6, §7, §8, §9, §10, §11, §12, §13, §14, §15, §16, §17, §18

[6] = solubility as observed in the assays; type: physicochemical
[7] = system: E. coli K12 (BW25113); test: antibacterial activity (dosage-response, 24 h) under iron-limited, micro-aerobic conditions
[8] = system: E. coli K12 (BW25113); test: prodrug incubation experiment: C-moxi preloading, washing, catalyst addition (18 h); conditions: substrate at upper nontoxic concentration
[9] = C-moxi 10 µM, relative to 'no cell' controls
[10] = Mean of three runs, tested range 0.05–100 μM
[11] = MHII + 200 μM bpy, 2 % O2, 37 °C, 24 h

SMILES | effect on growth relative to the no addition control, substance alone [1] | IC50 [4, 10] | IC50 ([4]; Run 2) | IC50 ([4]; Run 3) | IC50 [5, 10] | IC50 ([5]; Run 2) | IC50 ([5]; Run 3) | also measured
O=C(O)CC(O)(CC(=O)O)C(=O)O [citrate] | improve growth |  |  |  |  |  |  | 
[Cl][Fe]([Cl])[Cl] [FeCl3] |  |  |  |  |  |  |  | change of overall growth compared to no addition [2]: tenfold
CC(=O)N(O)CCCCCNC(=O)CCC(=O)N(O)CCCCCNC(=O)CCC(=O)N(O)CCCCCN [DFO, desferrioxamine B] | does not improve growth |  |  |  |  |  |  | 
O=C(NCCCC[C@H](NC(=O)c1cccc(O)c1O)C(=O)O)c1cccc(O)c1O [azotochelin] | improve growth |  |  |  |  |  |  | 
C=CCOC(=O)c1cn(C2CC2)c2c(OC)c(N3C[C@@H]4CCCN[C@@H]4C3)c(F)cc2c1=O [C‐moxi] |  | > 100 µM | > 100 µM | > 100 µM | > 100 µM | > 100 µM | > 100 µM | Remainder ([3]; C-moxi 10 µM, 100 % minus extracellular and wash): 16.4%; Uptake ([3]; C-moxi 10 µM, incubation OD600 0.1): 3.31 nmol OD600-1; Extracellular [3, 9]: 82.7%; Wash [3, 9]: 0.9%; internalisation (bacterial uptake) of prodrug ([3]; C‐moxi added at 10 μM, 15 min at 37 °C, exponential growth, iron-limited, micro-aerobic): 16%; IC50 ([4]; Homo sapiens, Run 1): > 100 µM; IC50 ([5]; Homo sapiens, Run 1): > 100 µM; solubility ([6]; bacterial growth assay medium, read-out: solubility limit): 500 µM (≈ 221 µg/mL); concentrations at which no antibacterial activity is seen [7, 11]: < 10 µM; times less toxic than the parent antibacterial Moxi ([7]; bacterial assays, E. coli K12): ~300
COc1c(N2C[C@@H]3CCCN[C@@H]3C2)c(F)cc2c(=O)c(C(=O)O)cn(C3CC3)c12 [Moxi, moxifloxacin] |  | > 100 µM | > 100 µM | > 100 µM | > 100 µM | > 100 µM | > 100 µM | IC50 ([4]; Homo sapiens, Run 1): > 100 µM; IC50 ([5]; Homo sapiens, Run 1): > 100 µM; difference between C‐moxi and DMSO incubations (in words) [8]: no significant difference between incubations; concentrations at which no antibacterial activity is observed [7, 11]: < 10 nM
N.N.[Cl][Pt][Cl] [Cisplatin, cisplatin] |  | 17 µM | 20.6 µM | 17.8 µM | 18.8 µM | 18 µM | 18.9 µM | IC50 ([4]; Run 1): 12.6 µM; IC50 ([5]; Run 1): 19.5 µM
O=C(O)c1cccc(O)c1O [DHB, 2,3‐dihydroxybenzoic acid] | improve growth |  |  |  |  |  |  | 
C=CCOC(=O)N1CCC[C@H]2CN(c3c(F)cc4c(=O)c(C(=O)O)cn(C5CC5)c4c3OC)C[C@H]21 [N‐moxi] |  |  |  |  |  |  |  | solubility ([6]; 10 % DMSO in aqueous MOPS buffer, HPLC kinetics): poor solubility; concentrations at which no antibacterial activity is seen [7, 11]: < 10 µM
